BindingDB's records for doi:10.1073/pnas.121170598 (Merck Research Laboratories, 2001)
Bridge positions count the residues as written; N and C are the ends. Peptide text beside a SMILES is read from it.

What was measured:
[1] = target: Melanin-concentrating hormone receptor 2 (Homo sapiens, UniProt Q969V1)
[2] = target: Melanin-concentrating hormone receptor 1 (Homo sapiens, UniProt Q99705)
Chain of Melanin-concentrating hormone receptor 1 (Q99705 as listed by the source): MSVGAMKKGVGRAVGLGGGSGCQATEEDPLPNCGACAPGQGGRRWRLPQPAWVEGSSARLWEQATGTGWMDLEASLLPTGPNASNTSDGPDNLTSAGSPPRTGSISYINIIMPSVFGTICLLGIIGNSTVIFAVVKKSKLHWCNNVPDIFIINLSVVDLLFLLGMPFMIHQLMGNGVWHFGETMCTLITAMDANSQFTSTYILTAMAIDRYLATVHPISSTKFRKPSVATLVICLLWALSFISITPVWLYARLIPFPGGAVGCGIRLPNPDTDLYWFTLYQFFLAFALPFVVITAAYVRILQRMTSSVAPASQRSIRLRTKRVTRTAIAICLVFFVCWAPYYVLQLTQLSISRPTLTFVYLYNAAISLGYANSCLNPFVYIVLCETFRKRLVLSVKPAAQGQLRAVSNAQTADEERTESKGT

Chain of Melanin-concentrating hormone receptor 2 (Q969V1 whole entry): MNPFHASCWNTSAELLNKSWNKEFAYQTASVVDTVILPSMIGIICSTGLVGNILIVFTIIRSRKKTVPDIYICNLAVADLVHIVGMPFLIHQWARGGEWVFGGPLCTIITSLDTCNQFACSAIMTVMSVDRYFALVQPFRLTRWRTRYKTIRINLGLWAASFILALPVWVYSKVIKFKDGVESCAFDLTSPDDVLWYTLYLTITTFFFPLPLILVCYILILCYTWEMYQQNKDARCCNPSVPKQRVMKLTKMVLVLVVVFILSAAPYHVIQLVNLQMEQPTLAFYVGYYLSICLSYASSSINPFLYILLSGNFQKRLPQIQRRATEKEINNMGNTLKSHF

CSCC[C@@H]1NC(=O)[C@@H](NC(=O)[C@H](CCCNC(=N)N)NC(=O)[C@H](CCSC)NC(=O)[C@@H](NC(=O)[C@@H](N)CC(=O)O)[C@@H](C)O)CSSC[C@@H](C(=O)N[C@@H](Cc2c[nH]c3ccccc23)C(=O)N[C@@H](CCC(=O)O)C(=O)N[C@H](C(=O)O)C(C)C)NC(=O)[C@@H]2CCCN2C(=O)[C@H](CCCNC(=N)N)NC(=O)[C@H](Cc2ccc(O)cc2)NC(=O)[C@H](C(C)C)NC(=O)[C@H](CCCNC(=N)N)NC(=O)CNC(=O)[C@H](C(C)C)NC1=O [Salmon MCH] (H-DTMRCMVGRVYRPCWEV-OH; disulfide 5-14)
Ki [1]: 437 nM | Ki [2]: 0.2 nM

CSCC[C@@H]1NC(=O)[C@@H](NC(=O)[C@H](CCCNC(=N)N)NC(=O)[C@H](CC(C)C)NC(=O)[C@H](CCSC)NC(=O)[C@H](CC(=O)O)NC(=O)[C@H](Cc2ccccc2)NC(=O)[C@@H](N)CC(=O)O)CSSC[C@@H](C(=O)N[C@@H](Cc2c[nH]c3ccccc23)C(=O)N[C@@H](CCC(N)=O)C(=O)N[C@H](C(=O)O)C(C)C)NC(=O)[C@@H]2CCCN2C(=O)[C@H](CCCNC(=N)N)NC(=O)[C@H](Cc2ccc(O)cc2)NC(=O)[C@H](C(C)C)NC(=O)[C@H](CCCNC(=N)N)NC(=O)CNC(=O)[C@H](CC(C)C)NC1=O [hMCH]
Ki [1]: 1.5 nM
